The subject of experiment [1] is Human U937 monocytic cells. Put plainly: U937 IFNγ ICAM1 FACS Assay. It counts as cell-based. The text has this:
(§1) The activity of the compounds of the invention may additionally be characterized by assaying the effect of the 2,4-pyrimidinediamine compounds described herein on A549 lung epithelial cells and U937 cells. A549 lung epithelial cells and U937 cells up-regulate ICAM-1 (CD54) surface expression in response to a variety of different stimuli. Therefore, using ICAM-1 expression as readout, test compound effects on different signaling pathways can be assessed in the same cell type. Stimulation with IL-1β through the IL-1β receptor activates the TRAF6/NFκB pathway resulting in up-regulation of ICAM-1. IFNγ induces ICAM-1 up-regulation through activation of the JAK1/JAK2 pathway. The up-regulation of ICAM-1 can be quantified by flow cytometry across a compound dose curve and EC50 values are calculated. An exemplary assays of this type are described in greater detail in Examples 4 and 5.
Human U937 monocytic cells up-regulate ICAM-1 (CD54) surface expression in response to a variety of different stimuli. Therefore, using ICAM-1 expression as readout, compound effects on different signaling pathways can be assessed in the same cell type. IFNγ up-regulates ICAM-1 through activation of the JAK/Stat pathway. In this example, the up-regulation of ICAM-1 by IFNγ was assessed.
The U937 human monocytic cell line was obtained from ATCC of Rockville Md., catalog number CRL-1593.2, and cultured in RPM1-1640 medium containing 10% (v/v) FCS. U937 cells were grown in 10% RPMI. The cells were then plated at a concentration of 100,000 cells per 160 μL in 96 well flat bottom plates. The test compounds were then diluted as follows: 10 mM test compound was diluted 1:5 in DMSO (3 μL 10 mM test compound in 12 μL DMSO), followed by a 1:3 serial dilution of test compound in DMSO (6 μL test compound serially diluted into 12 μL DMSO to give 3-fold dilutions). Then 4 μL of test compound was transferred to 76 μL of 10% RPMI resulting in a 10× solution (100 μM test compound, 5% DMSO). For control wells, 4 μL of DMSO was diluted into 76 μL 10% RPMI.
The assay was performed in duplicate with 8 points (8 3-fold dilution concentrations from […]) and with 4 wells of DMSO only (control wells) under stimulated conditions and 4 wells of DMSO only under unstimulated conditions.
The diluted compound plate was mixed 2× using a multimek (Beckman Coulter of Brea, Calif.) and then 20 μL of the diluted compounds was transferred to the 96 well plate containing 160 μL of cells, which were then mixed again twice at low speeds. The cells and compounds were then pre-incubated for 30 minutes at 37° C. with 5% CO2.
The 10× stimulation mix was made by preparing a 100 ng/mL solution of human IFNγ in 10% RPMI. The cells and compound were then stimulated with 20 μL of IFNγ stimulation mix to give a final concentration of 10 ng/mL IFNγ, 10 μM test compound, and 0.5% DMSO. The cells were kept under conditions for stimulation for 18-24 hours at 37° C. with 5% CO2.
The cells were transferred to a 96 well round bottom plate for staining and then kept on ice for the duration of the staining procedure. Cells were spun down at 1000 rpm for 5 minutes at 4° C., following which the supernatant was removed. Following removal of the supernatant, 1 μL APC conjugated mouse anti-human ICAM-1 antibody was added per 100 μL FACS buffer. The cells were then incubated on ice in the dark for 30 minutes. Following incubation, 150 μL of FACS buffer was added and the cells were centrifuged at 1000 rpm for 5 minutes at 4° C., following which the supernatant was removed. After removal of the supernatant, 200 μL of FACS buffer was added and the cells were resuspended. After suspension, the cells were centrifuged at 1000 rpm for 5 min at 4° C. Supernatant was then removed prior to resuspension of the cells in 150 μL FACS buffer.
Detection was performed using a BD LSR I System Flow Cytometer, purchased from BD Biosciences of San Jose, Calif. […]

The subject of experiment [2] is A549 lung epithelial cells. Put plainly: A549 Epithelial Line Stimulated with IFNγ (ICAM-1 surface expression, FACS). Particulars: IFNγ 75 ng/mL, 24 hours, ICAM-1 (CD54) surface expression by flow cytometry; read-out: Example 4 (IC50, A549 epithelial line stimulated with IFNγ). It counts as cell-based, human.
Excerpt: as §1
A549 lung epithelial cells up-regulate ICAM-1 (CD54) surface expression in response to a variety of different stimuli. Therefore, using ICAM-1 expression as readout, compound effects on different signaling pathways can be assessed in the same cell type. IFNγ up-regulates ICAM-1 through activation of the JAK/Stat pathway. In this example, the up-regulation of ICAM-1 by IFNγ was assessed.
The A549 lung epithelial carcinoma cell line originated from the American Type Culture Collection. Routine culturing was with F12K media (Mediatech Inc., Lenexa, Kans., Cat. No. 10-025-CV) with 10% fetal bovine serum, 100 I.U. penicillin and […] streptomycin (complete F12k media). Cells were incubated in a humidified atmosphere of 5% CO2 at 37° C. Prior to use in the assay, A549 cells were washed with PBS and trypsinized (Mediatech Inc., Cat. No. 25-052-CI) to lift the cells. The trypsin cell suspension was neutralized with complete F12K media and centrifuged to pellet the cells. The cell pellet was resuspended in complete F12K media at a concentration of 2.0×10^5/mL. Cells were seeded at 20,000 per well, 100 μL total volume, in a flat bottom tissue culture plate and allowed to adhere overnight.
On day two, A549 cells were pre-incubated with a 2,4-pyrimidinediamine test compound or DMSO (control) (Sigma-Aldrich, St. Louis, Mo., Catalog No. D2650) for 1 hour. The cells were then stimulated with IFNγ (75 ng/mL) (Peprotech Inc., Rocky Hill, N.J., Cat. No. 300-02) and allowed to incubate for 24 hours. The final test compound dose range was 30 μM to 14 nM in 200 μL F12K media containing 5% FBS, 0.3% DMSO.
On day three, the cell media was removed and the cells were washed with 200 μL PBS (phosphate buffered saline). Each well was trypsinized to dissociate the cells, then neutralized by addition of 200 μL complete F12K media. Cells were pelleted and stained with an APC conjugated mouse anti-human ICAM-1 (CD54) (BD Pharmingen, San Diego, Calif., Catalog #559771) antibody for 20 minutes at 4° C. Cells were washed with ice cold FACS buffer (PBS+2% FBS) and surface ICAM-1 expression was analyzed by flow cytometry. Detection was performed using a BD LSR I System Flow Cytometer, purchased from BD Biosciences of San Jose, Calif. Events were gated for live scatter and the geometric mean was calculated (Becton-Dickinson CellQuest software version 3.3, Franklin Lakes, N.J.). Geometric means were plotted against the compound concentration to generate a dose response curve.

[3] abbreviates: IFNγ 10 ng/mL, 18-24 hours, ICAM-1 expression by flow cytometry, read-out: Example 5 (IC50, U937 IFNγ ICAM1 FACS assay).
[4] abbreviates: Homo sapiens, U-937, IFNγ 10 ng/mL, 18-24 hours, ICAM-1 expression by flow cytometry, read-out: Example 5 (IC50, U937 IFNγ ICAM1 FACS assay).

The values that follow come from patent US8729087B2, “Compositions and methods for inhibition of the JAK pathway” (Rigel Pharmaceuticals, Inc., priority 2006, dated 2014).

Like-named read-outs stand apart in the source and are kept apart here.

Consider `CCS(=O)(=O)NCc1ccc(Nc2nc(Nc3ccc(CS(=O)(=O)NC)cc3)ncc2F)cc1` [Compound I-10, N4-(4-ethylsulfonylaminomethyl)phenyl-5-fluoro-N2-(4-methylaminosulfonylmethyl)phenyl-2,4-pyrimidinediamine], for which the IC50 in experiment [1] (setting [3]) is 0.469 µM.

On to `Cc1cnc(Nc2ccc(S(N)(=O)=O)cc2)nc1Nc1ccc2c(c1)C(NS(C)(=O)=O)CC2` (racemic) [VI-2, (+/−)-N2-(4-Aminosulfonylphenyl)-5-methyl-N4-[1-(methylsulfonyl)aminoindan-6-yl]-2,4-pyrimidinediamine], for which the IC50 in experiment [1] (setting [4]) was 2.58 µM.

In the case of `Cc1cnc(Nc2ccc(CCNS(=O)(=O)C3CC3)cc2)nc1Nc1ccc(CCNS(=O)(=O)C2CC2)cc1` [II-2, N2,N4-bis[4-(2-cyclopropylsulfonylamino)ethyl]phenyl-5-methyl-2,4-pyrimidine diamine], in experiment [1] (setting [3]), the IC50 came out at 0.991 µM.

Turning to `CC1(C)Oc2cc(Nc3nc(Nc4cccc(CS(N)(=O)=O)c4)ncc3F)cnc2NC1=O` [IV-1, N2-[3-(Aminosulfonylmethylene)phenyl]-N4-[2,2-dimethyl-3-oxo-4H-pyrid[1,4]oxazin-7-yl]-5-fluoro-2,4-pyrimidinediamine], the concentration for half-maximal inhibition (IC50) in experiment [1] (setting [3]) is 18.6 µM.

Take `N#CCOc1ccc(Nc2nc(Nc3cccc(CS(N)(=O)=O)c3)ncc2F)cc1` [Compound I-1, N2-[3-(Aminosulfonylmethylene)phenyl]-5-fluoro-N4-(4-cyanomethyleneoxyphenyl)-2,4-pyrimidinediamine]: the results for the IC50 in experiment [1] (setting [3]) and in experiment [2] were 0.554 µM and 3.07 µM, respectively.

As for `CNS(=O)(=O)Cc1ccc(Nc2ncc(F)c(Nc3ccc(CNS(=O)(=O)C4CC4)cc3)n2)cc1` [Compound I-8, N4-(4-cyclopropylsulfonylaminomethyl)phenyl-5-fluoro-N2-(4-methylaminosulfonylmethyl)phenyl-2,4-pyrimidinediamine], the IC50 in experiment [1] (setting [3]) stood at 0.347 µM; in experiment [2] it was 3.89 µM.

Consider `COc1cc(Nc2nc(Nc3ccc4c(c3)CN(S(N)(=O)=O)CC4)ncc2F)ccc1Cl` [III-1, N2-(2-Aminosulfonyl-1,2,3,4-tetrahydroisoquinolin-7-yl)-N4-(4-chloro-3-methoxyphenyl)-5-fluoro-2,4-pyrimidinediamine], for which the IC50 in experiment [1] (setting [4]) came to 1.08 µM.

In the case of `CCS(=O)(=O)NCc1ccc(Nc2nc(Nc3ccc(CS(=O)(=O)NC)cc3)ncc2C)cc1` [Compound I-2, N4-(4-ethylsulfonylaminomethyl)phenyl-5-methyl-N2-(4-methylaminosulfonylmethyl)phenyl-2,4-pyrimidinediamine], the values for the IC50 in experiment [1] (setting [3]) and in experiment [2] were 0.133 µM and 1.74 µM, respectively.

As to `Cc1cnc(Nc2ccc(CNS(=O)(=O)C3CC3)cc2)nc1Nc1ccc(CNS(=O)(=O)C2CC2)cc1` [II-1, N2,N4-bis(4-cyclopropylsulfonylaminomethyl)phenyl-5-methyl-2,4-pyrimidinediamine], the results for the IC50 in experiment [1] (setting [3]) and in experiment [2] were 0.0713 µM and 6.23 µM, respectively.

For the molecule `CN1C(=O)C(C)(C)Oc2cc(Nc3nc(Nc4cccc(CS(N)(=O)=O)c4)ncc3F)cnc21` [IV-2, N2-[3-(Aminosulfonylmethylene)phenyl]-N4-[2,2-dimethyl-3-oxo-4-methyl-pyrid[1,4]oxazin-7-yl]-5-fluoro-2,4-pyrimidinediamine], the half-inhibitory concentration (IC50) in experiment [2] is 3.5 µM.

For the molecule `NS(=O)(=O)N1CCc2ccc(Nc3ncc(F)c(Nc4ccc(CNS(=O)(=O)C5CC5)cc4)n3)cc2C1` [III-2, N2-(2-Aminosulfonyl-1,2,3,4-tetrahydroisoquinolin-7-yl)-N4-[4-(cyclopropylsulfonylaminomethyl)phenyl]-5-fluoro-2,4-pyrimidinediamine], the IC50 in experiment [1] (setting [4]) came out at 0.164 µM.

Turning to `C#CCOc1ccc(Nc2nc(Nc3ccc4c(c3)CN(S(N)(=O)=O)CC4)ncc2F)cc1` [III-4, N2-(2-Aminosulfonyl-1,2,3,4-tetrahydroisoquinolin-7-yl)-N4-(4-(prop-2-ynyloxy)phenyl)-5-fluoro-2,4-pyrimidinediamine], in experiment [1] (Homo sapiens, U-937, read-out: Example 5 (IC50, U937 IFNγ ICAM1 FACS assay)), the IC50 was determined as 0.462 µM.

Usually IC50 stands for the concentration that gives 50% inhibition.
